The values below are quoted from earlier work in patent publication US20260224521A1, “BIOMOLECULE FOR TREATMENT OF CORNEAL PATHOLOGIES” (Board of Supervisors of Louisiana State University and …, priority 2019, published 2026).

The test system of one data set is AXL receptors. The conditions noted are these: osteoporosis mouse model (97); cited from earlier work.
The conditions of data set [1]: topical NGF (95); cited from earlier work.

As for `CC/C=C\C[C@@H](O)/C=C/C=C/C/C=C\C/C=C\C/C=C\CCC(=O)O` [17R-hydroxy DHA], the pain behavior result in the data set with AXL receptors is listed as “decrease pain behavior”.
Turning to NGF: nerve growth factor, the “side effect of topical treatment” value in data set [1] is “ocular pain”.
